The nature of series [1]: method code SF, from Hansch, C. & Leo, A. (1987). Log P database [Dataset]. Pomona College Medicinal Chemistry Project.

Results on 105 molecules are retold here after the SangsterLogP compilation.

One may read the logP as a log measure of how a compound divides between an organic and an aqueous phase. A low value points to a more hydrophilic compound. `CCC(C)NC(=O)C(=Cc1ccccc1)NC(=O)c1ccccc1` (stereo not given) registered a lipophilicity (logP) of 2.61.

With `COc1cc(S(C)=O)ccc1-c1cn2cccnc2n1` (stereo not given), the logP is 0.64.

The molecule `O=NN(CCCl)C(=O)Nc1ccc(Cl)cc1` yielded a logP of 3.16.

In the case of `CCC(C)NC(=O)C(C)=Cc1ccccc1` (stereo not given), the logP amounted to 3.08.

In turn, `C[C@]1(O)CC[C@H]2[C@@H]3CCC4=CC(=O)CC[C@]4(C)[C@@]3(F)[C@@H](O)C[C@@]21C` yielded a logP of 2.38.

For the molecule `CCC(C)c1cccc(C(C)C)c1O` (stereo not given), the logP is 3.85.

On to `CCC(C)NC(=O)C(C)=Cc1ccc(Cl)cc1` (stereo not given), for which the logP was determined as 3.63.

Molecule `CCC(C)NC(=O)C=C(c1ccccc1)c1ccc(Cl)cc1` (stereo not given) registered a lipophilicity (logP) of 4.11.

With `CC(=O)Nc1cccc2nccnc12`, the logP worked out at 1.06.

`O=NN(CCCl)C(=O)Nc1ccccc1` came in with a lipophilicity (logP) of 2.49.

`C[C@]12CCC(=O)C=C1CC[C@@H]1[C@@H]2C(=O)C[C@@]2(C)[C@H]1CC[C@]2(O)C(=O)CO` came in with a lipophilicity (logP) of 1.64.

With `CCC(C)NC(=O)C=C(N)c1ccc(Cl)cc1` (stereo not given), the log partition coefficient (logP) was found to be 2.85.

In the case of `COc1cccc(NC(=O)N(CCCl)N=O)c1`, the logP was 2.66.

As for `CCSC(=O)Oc1cccc2cccnc12`, the logP was 2.74.

`CC(=O)Nc1cnc2ccccc2n1`: the logP was 1.53.

For `CCC(C)c1cccc(C(C)CC)c1O` (stereo not given), the logP was found to be 4.38.

In turn, `CCC(C)NC(=O)C(=Cc1ccccc1)SC` (stereo not given) registered a logP of 3.53.

Molecule `CCC(C)NC(=O)C(=Cc1ccccc1)NC(C)=O` (stereo not given) had a logP of 1.76.

Molecule `CC(=O)Nc1ccc2nccnc2c1` yielded a logP of 1.

`FC(F)(F)CN(CC(F)(F)F)c1ccccc1` registered a logP of 3.69.

For the molecule `CCCC(=CC(=O)NC(C)CC)c1ccc(Cl)cc1` (stereo not given), the logP amounted to 4.34.

Regarding `CC12CC3(C)CC(C)(C1)CC(NC(=O)N(CCCl)N=O)(C2)C3`, the log partition coefficient (logP) came to 5.75.

Turning to `CCCCOc1ccc(O)cc1`, the logP worked out at 2.9.

Take `FC(F)(F)CN(CC(F)(F)F)c1ccc(Br)cc1`: the logP amounted to 4.7.

`[O-][n+]1cc(-c2ccccc2)ncc1-c1ccccc1` had a logP of 3.27.

In series [1], `CN(C)C(=O)Oc1ccccc1[N+](=O)[O-]` had a logP of 1.35.

In turn, `COCCC(=O)N(C)c1ccc(S(=O)(=O)N(C)C)cc1` returned a logP in series [1] of 0.33.

With `CCOC(=O)CON=Cc1ccc(OCCOC(=O)c2cc(OC)c(OC)c(OC)c2)c(OC)c1`, the logP in series [1] is 3.26.

For orientation: logD means the decadic logarithm of the distribution of all forms, ionised or not, between an organic phase and buffer at a given pH. The low end stands for a more hydrophilic compound, the high end for a more lipophilic compound. For `COc1ccc2c(c1O)-c1cccc3c1C(C2)N(CCO)CC3` (stereo not given), the logD in series [1] (pH 7.4) is 2.43.

In series [1], `CC(=O)n1ccnc1` gave a logP of -0.34.

As for `Brc1ccc2ncccc2c1`, the pH-dependent lipophilicity (logD) in series [1] (pH 7.0) stood at 2.83.

With `c1ccc(SSc2ccccc2)cc1`, the logP in series [1] was determined as 4.41.

For `CCCCCCOC(=O)c1ccc(O)cc1`, the logP in series [1] is 4.35. The logP values of the last two molecules are within 0.2 log units of each other.

In the case of `COc1ccc2[nH]c(CCc3nc4cc(OC)ccc4[nH]3)nc2c1`, in series [1], the logP was 1.14.

Take `COc1cc2c(c(OC)c1OC)-c1ccc(OC)c(=O)cc1[C@@H](N)CC2`: the logP in series [1] was 0.67.

As for `S=C(Nc1ccccc1)c1ccccc1`, in series [1], the logP is 3.03.

`N#CCC(N)=C(C#N)C#N` returned a logP in series [1] of -0.13.

In series [1], `O=[N+]([O-])c1ccc2[nH]c(CCCCc3nc4cc([N+](=O)[O-])ccc4[nH]3)nc2c1` yielded a logP of 2.45.

Molecule `O=[N+]([O-])c1ccc(C=Cc2nc3ccccc3[nH]2)o1` registered a logP in series [1] of 1.4.

In turn, `O=Cc1cccc([N+](=O)[O-])c1` had a logD in series [1] (pH 7.0) of 1.47.

On to `CCOC(=O)c1n[nH]c2ccc(CC)cc2c1=O`, for which the log partition coefficient (logP) was 2.01.

Molecule `CC(C)NCc1cccnc1` registered a logD in series [1] (pH 11.0) of 0.82.

In series [1], `CCC1(C)CCC(=O)NC1=O` (stereo not given) yielded a lipophilicity (logP) of 0.23.

On to `c1ccc2c(c1)nnc1ccccc12`, for which the logP in series [1] is 2.71.

`CC(=O)Oc1ccccc1C#N` registered a logP in series [1] of 1.33.

Consider `c1cc2[nH]cnc2cn1`, for which the logP in series [1] was determined as 0.18.

As to `CCOC(=O)c1cccc([N+](=O)[O-])c1`, the logD in series [1] (pH 7.0) came out at 2.35.

`CCCCCCC1CCC(=O)O1` (stereo not given) had a lipophilicity (logP) in series [1] of 2.72.

Regarding `C#CCCC(=O)N(C)c1ccc(S(=O)(=O)N(C)C)cc1`, the logP in series [1] was 0.88.

`CCOC(=O)C(=Cc1ccccc1OC)C(C)=O` yielded a logP in series [1] of 2.39.

`Cc1ccc2[nH]c(CCCCCCc3nc4cc(C)ccc4[nH]3)nc2c1` came in with a logP in series [1] of 1.76.

In turn, `Sc1ncccn1` registered a logP in series [1] of -0.97.

As for `CC1=Nc2cccc(Cl)c2S(=O)(=O)N1`, the logP in series [1] stood at 0.62.

The molecule `N#CCc1ccco1` registered a logP in series [1] of 0.85.

Take `Cc1cccc(/N=N/N(C)C)c1`: the logP in series [1] worked out at 2.85.

`CS(=O)(=O)Oc1ccccc1` gave a logP in series [1] of 1.25.

In series [1], `CC1(O)OC(=O)c2ccccc21` (stereo not given) had a logP of 0.81.

On to `Cc1c(N(C)C)c(=O)n(CCO)c(=O)n1-c1ccccc1`, for which the logD in series [1] (pH 7.4) came out at 1.12.

In the case of `O=NN(CCCl)C(=O)NC1CCCCCCCCCCC1`, the logP amounted to 5.64.

In series [1], `ClC(Cl)(Cl)Sc1ccccc1` gave a logP of 3.78.

`Nc1c(S(=O)(=O)O)ccc2ccccc12` had a logP in series [1] of -0.97.

`CCC(C)NC(=O)/C(Br)=C\c1ccccc1` (stereo not given) showed a logP in series [1] of 3.56.

With `CCC(=O)OCC(=O)[C@@]1(OC(=O)CC)[C@H](C)C[C@H]2[C@@H]3C[C@H](F)C4=CC(=O)C(Cl)=C[C@]4(C)[C@@]3(F)[C@@H](O)C[C@@]21C`, in series [1], the logP was found to be 4.22.

As to `O=S(=O)(Nc1cn[nH]c1)c1ccccc1`, the logP in series [1] was determined as 0.87.

Consider `N#CCC(=O)Nc1ccc(Cl)c(Cl)c1`, for which the logP in series [1] is 2.72.

`NC(=O)c1cccnc1N` yielded a pH-dependent lipophilicity (logD) in series [1] (pH 7.0) of 0.88.

In the case of `CC(=O)Nc1cn[nH]c1`, the logP in series [1] was -0.38.

Regarding `Cn1ccccc1=O`, in series [1], the logP was -0.23.

Regarding `O=[N+]([O-])c1ccc2[nH]c(CCCCCCc3nc4cc([N+](=O)[O-])ccc4[nH]3)nc2c1`, the logP in series [1] was found to be 1.51.

`NCc1cccnc1` came in with a logD in series [1] (pH 11.0) of -0.1.

`CC(=O)C(C)=O` came in with a lipophilicity (logP) in series [1] of -1.34.

In series [1], `COC(=O)c1cc(Oc2ccc(Cl)cc2Cl)ccc1[N+](=O)[O-]` showed a logP of 4.48.

Regarding `O=C(O)COc1ccc(Cl)c(Cl)c1`, the log partition coefficient (logP) in series [1] turned out to be 2.81.

In series [1], `O=C(OCCOCCO)c1ccccc1` displayed a logP of 1.16.

Turning to `COc1cc(OCCOC(=O)c2ccccc2)ccc1C=NO`, in series [1], the logP was 2.94.

For `CC(F)F`, the logP in series [1] came out at 0.75.

Regarding `COc1cc(C=NO)ccc1O`, in series [1], the logP was found to be 2.16.

In series [1], `CCOC(=Cc1ccccc1)C(=O)NC(C)CC` (stereo not given) registered a logP of 3.2.

With `O=C(Nc1ccccc1)C(F)(F)F`, the logP in series [1] came out at 2.21.

`COc1ccc2c(c1)N(CCCN(C)C)c1ccccc1S2` had a lipophilicity (logP) in series [1] of 4.46.

As for `CSc1ncnc2c1ncn2[C@@H]1O[C@H](CO)[C@@H](O)[C@@H]1O`, in series [1], the logP turned out to be 0.09.

In series [1], `N#CN=[N+]([O-])c1cccc(Cl)c1` showed a logP of 2.4.

`CN(C)C(=O)Cc1ccco1`: in series [1], the logP worked out at 0.01.

`OCCOc1c(Br)cc(Br)cc1Br` registered a logP in series [1] of 3.42.

Molecule `CC1=Nc2c(Br)cc(Cl)cc2S(=O)(=O)N1` displayed a logP in series [1] of 1.65.

The molecule `CCCC1CC(C(=O)NC(C(C)Cl)C2OC(SCC)C(O)C(O)C2O)N(CC)C1` (stereo not given) returned a logD in series [1] (pH 12.0) of 3.18.

Consider `O=CNc1ccccc1`, for which, in series [1], the logP was found to be 1.2.

Molecule `COC(OC)(OC)c1ccccc1` returned a logD in series [1] (pH 13.0) of 2.27.

The molecule `CC(=O)c1cccc(F)c1` displayed a log distribution coefficient (logD) in series [1] (pH 7.0) of 1.77.

In turn, `COc1ccc(C(C)=O)c(N)c1` came in with a logP in series [1] of 1.76.

On to `CN(C)CCCc1ccco1`, for which, in series [1], the logP worked out at 2.08.

In the case of `CCCCOC(=O)c1cccc(C(=O)OCCCC)c1`, in series [1], the logP was determined as 4.26.

As to `COc1ccc(C=C(C(C)=O)C(C)=O)c(OC)c1`, the logP in series [1] stood at 1.88.

`Nc1ncnc2c1ncn2[C@@H]1O[C@H](CO)[C@@H](O)[C@@H]1O` yielded a log partition coefficient (logP) in series [1] of -1.11.

On to `COc1ccnc(C#N)n1`, for which the logP is 0.86.

Consider `CN(C)c1cccc2ccccc12`, for which the logP in series [1] amounted to 3.46.

Molecule `CCCCOc1cccc(C=C(C(C)=O)C(=O)OCC)c1` showed a logP in series [1] of 3.12.

`O=S(=O)(c1ccccc1)C(F)(F)F` yielded a lipophilicity (logP) in series [1] of 2.69.

`Cn1ncc2ccccc2c1=O` showed a lipophilicity (logP) in series [1] of 0.61.

`CN1CCC(CN2c3ccccc3Sc3ccccc32)C1` (stereo not given): in series [1] (pH 8.7), the logD is 3.87.

In turn, `NC(=O)NC1OC(=O)c2ccccc21` (stereo not given) registered a logP in series [1] of 0.49.

Consider `CN(C)C#N`, for which the logP in series [1] was -0.15.

For `CCN(CC)Cc1cccnc1`, the logD in series [1] (pH 11.0) came out at 1.01.

Regarding `Nc1ccc(C(F)(F)F)cc1`, in series [1] (pH 7.4), the logD stood at 2.39.

In series [1], `O=S1(=O)NC(C2CC3C=CC2C3)=Nc2ccccc21` (stereo not given) gave a logP of 2.06.
